# Measurements from PubChem BioAssay AID651913 (NMMLSC, 2012).
# Test system: MG13-hCCR5 cells, FAP-MG2p fluorogen binding, flow cytometry MCF
# Assay: FAP-tagged hCCR5 fluorogen binding interference – cell-based, FAP-tagged human CCR5, Powderset5, counter-screen for beta2AR agonist project, dose response (AID 651913)
row,SMILES,EC50 [nM]
1,CN(CC(=O)N1CCN(c2ccc(F)cc2)CC1)S(=O)(=O)c1cc(Cl)ccc1Cl,54.5
2,CN(CC(=O)N1CCN(c2ccccn2)CC1)S(=O)(=O)c1ccc(Cl)cc1,10.8
3,CN(CC(=O)N1CCN(c2ccc(F)cc2)CC1)S(=O)(=O)c1ccc(Br)cc1,1030
4,O=C(C1CCCN1S(=O)(=O)c1ccc(Cl)cc1)N1CCN(c2ccccn2)CC1 (stereo not given),257
5,CCC1CCCCN1S(=O)(=O)c1ccc(NC(C)=O)cc1 (stereo not given),455
